Laboratory results from patent US8912220B2 (priority 2009, dated 2014).

The compounds below were run against human 5-HT2C(VSV) (Homo sapiens, UniProt P28335, I156V/I160V/N158S) (assay: cell-based).
Sequence of human 5-HT2C(VSV) (P28335 33-458 I156V/N158S/I160V limits assumed): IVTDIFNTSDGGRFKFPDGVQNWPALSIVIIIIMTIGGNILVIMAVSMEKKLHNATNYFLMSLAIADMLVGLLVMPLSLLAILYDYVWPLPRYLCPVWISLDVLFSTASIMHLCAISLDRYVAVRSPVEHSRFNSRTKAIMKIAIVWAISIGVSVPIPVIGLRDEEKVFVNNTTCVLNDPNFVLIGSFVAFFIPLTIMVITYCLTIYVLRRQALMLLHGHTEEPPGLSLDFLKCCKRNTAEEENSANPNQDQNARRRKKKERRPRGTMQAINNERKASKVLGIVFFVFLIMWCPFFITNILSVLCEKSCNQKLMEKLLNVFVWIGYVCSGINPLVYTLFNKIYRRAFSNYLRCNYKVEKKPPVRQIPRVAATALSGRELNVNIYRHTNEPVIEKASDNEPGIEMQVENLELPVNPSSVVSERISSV
Work on `CCn1cc(CCN(C)C)c2c(OCc3ccc(Cl)cc3)cc(F)cc21` [1-10b, 2-(4-(4-chlorobenzyloxy)-1-ethyl-6-fluoro-1H-indol-3-yl)-N,N-dimethylethanamine] yielded an EC50 of 0.5 to 10 µM. `CCn1cc(CCN(C)C)c2c(OCc3ccc(OC(F)(F)F)cc3)cc(F)cc21` [1-11b, 2-(1-ethyl-6-fluoro-4-(4-(trifluoromethoxy)benzyloxy)-1H-indol-3-yl)-N,N-dimethylethanamine] showed an EC50 of 0.5 to 10 µM. In the case of `CCn1cc(CCN(C)C)c2c(OCc3ccc(C(F)(F)F)cc3)cc(F)cc21` [1-12b, 2-(1-ethyl-6-fluoro-4-(4-(trifluoromethyl)benzyloxy)-1H-indol-3-yl)-N,N-dimethylethanamine], the EC50 is reported as 0.5 to 10 µM. With `CCn1cc(CCN(C)C)c2c(OCc3ccccc3C(F)(F)F)cc(F)cc21` [1-13b, 2-(1-ethyl-6-fluoro-4-(2-(trifluoromethyl)benzyloxy)-1H-indol-3-yl)-N,N-dimethylethanamine] the EC50 was 0.5 to 10 µM. Compound `CCn1cc(CCN(C)C)c2c(OCc3ccc(F)cc3)cc(F)cc21` [1-14b, 2-(1-ethyl-6-fluoro-4-(4-fluorobenzyloxy)-1H-indol-3-yl)-N,N-dimethylethanamine] has an EC50 of 0.001 to 0.5 µM. `CCn1cc(CCN(C)C)c2c(OCc3ccc(OC)cc3)cc(F)cc21` [1-15b, 2-(1-ethyl-6-fluoro-4-(4-methoxybenzyloxy)-1H-indol-3-yl)-N,N-dimethylethanamine] showed an EC50 of 0.001 to 0.5 µM. `CCn1cc(CCN(C)C)c2c(OCc3cccc(C(F)(F)F)c3)cc(F)cc21` [1-16b, 2-(1-ethyl-6-fluoro-4-(3-(trifluoromethyl)benzyloxy)-1H-indol-3-yl)-N,N-dimethylethanamine] showed an EC50 of 0.5 to 10 µM. With `CCn1cc(CCN(C)C)c2c(OCc3cc(F)ccc3C)cc(F)cc21` [1-17b, 2-(1-ethyl-6-fluoro-4-(5-fluoro-2-methylbenzyloxy)-1H-indol-3-yl)-N,N-dimethylethanamine] the EC50 was 0.001 to 0.5 µM. Compound `CCn1cc(CCN(C)C)c2c(OCc3ccncc3)cc(F)cc21` [1-18b, 2-(1-ethyl-6-fluoro-4-(pyridin-4-ylmethoxy)-1H-indol-3-yl)-N,N-dimethylethanamine] has an EC50 of 0.5 to 10 µM. In the case of `CCn1cc(CCN(C)C)c2c(OCc3ccsc3)cc(F)cc21` [1-19b, 2-(1-ethyl-6-fluoro-4-(thiophen-3-ylmethoxy)-1H-indol-3-yl)-N,N-dimethylethanamine], the EC50 is reported as 0.001 to 0.5 µM. `CN(C)CCc1cn(C)c2ccc(F)c(OCc3cccs3)c12` [1-20a, 2-(5-fluoro-1-methyl-4-(thiophen-2-ylmethoxy)-1H-indol-3-yl)-N,N-dimethylethanamine] gave an EC50 of 0.001 to 0.5 µM. In the case of `CCn1cc(CCN(C)C)c2c(Oc3ccccc3[N+](=O)[O-])ccc(F)c21` [2-2, 2-(1-ethyl-7-fluoro-4-(2-nitrophenoxy)-1H-indol-3-yl)-N,N-dimethylethanamine], the EC50 is reported as 0.5 to 10 µM. With `CCn1cc(CCN(C)C)c2c(Oc3ccccc3N)ccc(F)c21` [2-3, 2-(3-(2-(dimethylamino)ethyl)-1-ethyl-7-fluoro-1H-indol-4-yloxy)aniline] the EC50 was 0.001 to 0.5 µM. `COc1ccc(-c2ccccc2)c2c1c(CCN(C)C)cn2C` [6-6, 2-(4-methoxy-1-methyl-7-phenyl-1H-indol-3-yl)-N,N-dimethylethanamine] showed an EC50 of 0.001 to 0.5 µM. `COc1ccc(-c2cccs2)c2c1c(CCN(C)C)cn2C` [6-7, 2-(4-methoxy-1-methyl-7-(thiophen-2-yl)-1H-indol-3-yl)-N,N-dimethylethanamine] showed an EC50 of 0.5 to 10 µM. `COc1ccc(-c2ccco2)c2c1c(CCN(C)C)cn2C` [6-8, 2-(7-(furan-2-yl)-4-methoxy-1-methyl-1H-indol-3-yl)-N,N-dimethylethanamine] was tested, and the EC50 was 0.5 to 10 µM. For `COc1ccc(-c2ccoc2)c2c1c(CCN(C)C)cn2C` [6-9, 2-(7-(furan-3-yl)-4-methoxy-1-methyl-1H-indol-3-yl)-N,N-dimethylethanamine], the EC50 was 0.5 to 10 µM. For `COc1ccc(-c2ccc[nH]2)c2c1c(CCN(C)C)cn2C` [6-10, 2-(4-methoxy-1-methyl-7-(1H-pyrrol-2-yl)-1H-indol-3-yl)-N,N-dimethylethanamine], the EC50 was 0.5 to 10 µM. With `COc1ccc(C#CCO)c2c1c(CCN(C)C)cn2C` [6-11, 3-(3-(2-(dimethylamino)ethyl)-4-methoxy-1-methyl-1H-indol-7-yl)prop-2-yn-1-ol] the EC50 was 0.001 to 0.5 µM. Work on `COc1ccc(Nc2ccccc2)c2c1c(CCN(C)C)cn2C` [6-12, 3-(2-dimethylaminoethyl)-4-methoxy-1-methyl-N-phenyl-1H-indol-7-amine] yielded an EC50 of 0.001 to 0.5 µM. For `COc1ccc(-c2ccsc2)c2c1c(CCN(C)C)cn2C` [6-13, 2-(4-methoxy-1-methyl-7-(thiophen-3-yl)-1H-indol-3-yl)-N,N-dimethylethanamine], the EC50 was 0.5 to 10 µM. For `COc1ccc(-c2cccnc2)c2c1c(CCN(C)C)cn2C` [6-14, 2-(4-methoxy-1-methyl-7-(pyridin-3-yl)-1H-indol-3-yl)-N,N-dimethylethanamine], the EC50 was 0.001 to 0.5 µM. With `CN(C)CCc1cn(Cc2ccccc2)c2c(F)ccc(OCc3ccccc3)c12` [7-2, 2-(1-benzyl-4-(benzyloxy)-7-fluoro-1H-indol-3-yl)-N,N-dimethylethanamine] the EC50 was 0.5 to 10 µM. Compound `CN(C)CCc1cn(Cc2ccccc2)c2c(F)ccc(O)c12` [7-3, 1-benzyl-3-(2-(dimethylamino)ethyl)-7-fluoro-1H-indol-4-ol] has an EC50 of 0.5 to 10 µM. `CN(C)CCc1cn(Cc2cccs2)c2c(F)ccc(OCc3ccccc3)c12` [7-4, 2-(4-(benzyloxy)-7-fluoro-1-(thiophen-2-ylmethyl)-1H-indol-3-yl)-N,N-dimethylethanamine] showed an EC50 of 0.001 to 0.5 µM. With `CN(C)CCc1cn(Cc2ccc3ccccc3c2)c2c(F)ccc(OCc3ccccc3)c12` [7-6, 2-(4-(benzyloxy)-7-fluoro-1-(naphthalen-2-ylmethyl)-1H-indol-3-yl)-N,N-dimethylethanamine] the EC50 was 0.001 to 0.5 µM. With `COc1ccc(F)c2c1c(C(C)CN)cn2C` (stereo not drawn) [9-5, 2-(7-fluoro-4-methoxy-1-methyl-1H-indol-3-yl)propan-1-amine] the EC50 was 0.001 to 0.5 µM. In the case of `CCn1cc(CCN2CCOCC2)c2c(O)cc(F)cc21` [11-5, 1-ethyl-6-fluoro-3-(2-morpholinoethyl)-1H-indol-4-ol], the EC50 is reported as 0.001 to 0.5 µM. Work on `CCn1cc(CCN2CCCC2)c2c(O)cc(F)cc21` [11-6, 1-ethyl-6-fluoro-3-(2-(pyrrolidin-1-yl)ethyl)-1H-indol-4-ol] yielded an EC50 of 0.001 to 0.5 µM. With `CCn1cc(CCNc2ccccc2)c2c(O)ccc(F)c21` [11-7, 1-ethyl-7-fluoro-3-(2-(phenylamino)ethyl)-1H-indol-4-ol] the EC50 was 0.5 to 10 µM. `COc1ccc(F)c2c1c(CCN1CCOCC1)cn2C` [11-9, 4-(2-(7-fluoro-4-methoxy-1-methyl-1H-indol-3-yl)ethyl)morpholine] gave an EC50 of 0.001 to 0.5 µM. For `COc1ccc(F)c2c1c(CCN1CCCC1)cn2C` [11-10, 7-fluoro-4-methoxy-1-methyl-3-(2-(pyrrolidin-1-yl)ethyl)-1H-indole], the EC50 was 0.001 to 0.5 µM. `CCn1cc(CCNCCOC)c2c(O)cc(F)cc21` [11-11, 1-ethyl-6-fluoro-3-(2-(2-methoxyethylamino)ethyl)-1H-inol-4-ol] was tested, and the EC50 was 0.001 to 0.5 µM. `CCn1cc(CCN2CCCOCC2)c2c(O)cc(F)cc21` [11-12, 3-(2-(1,4-oxazepan-4-yl)ethyl)-1-ethyl-6-fluoro-1H-indol-4-ol] was tested, and the EC50 was 0.5 to 10 µM. Work on `CCn1cc(CCN2C[C@@H](C)O[C@@H](C)C2)c2c(O)cc(F)cc21` [11-13] yielded an EC50 of 0.5 to 10 µM. `CCn1cc(CCN2CCC(F)(F)C2)c2c(O)cc(F)cc21` [11-14, 3-(2-(3,3-difluoropyrrolidin-1-yl)ethyl)-1-ethyl-6-fluoro-1H-indol-4-ol] was tested, and the EC50 was 0.5 to 10 µM.
